# Reference: paper PMC9252884 (Biomolecules & Therapeutics, 2022)
# Biological target: TrkA (tropomyosin receptor kinase A) (Homo sapiens, UniProt P04629)
# Test: TR-FRET
# Format: biochemical
# Sequence of TrkA (tropomyosin receptor kinase A) (P04629 441-796 limits assumed): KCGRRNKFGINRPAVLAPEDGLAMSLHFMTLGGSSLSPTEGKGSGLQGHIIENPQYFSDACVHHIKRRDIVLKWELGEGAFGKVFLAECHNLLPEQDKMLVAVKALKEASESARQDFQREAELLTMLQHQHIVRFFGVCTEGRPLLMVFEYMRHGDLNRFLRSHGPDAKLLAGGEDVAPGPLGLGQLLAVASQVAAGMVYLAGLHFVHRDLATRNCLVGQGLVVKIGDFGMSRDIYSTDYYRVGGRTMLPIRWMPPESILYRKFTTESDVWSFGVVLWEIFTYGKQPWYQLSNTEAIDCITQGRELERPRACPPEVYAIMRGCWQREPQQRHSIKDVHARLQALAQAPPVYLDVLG
structure (smiles),measurement,value
"Nc1ncc(-c2cnn(C3CCNCC3)c2)cc1-c1nc2ccccc2o1 [KRC-108, 3-(benzo[d]oxazol-2-yl)-5-(1-(piperidin-4-yl)-1H-pyrazol-4-yl)pyridin-2-amine]",IC50,43.3 nM
